Molecules are shown by their SMILES.

The text below walks through data of ChEMBL document CHEMBL1150433, “Synthesis and activity of conformationally-constrained macrocyclic norstatine-based inhibitors of HIV protease” (Bioorg Med Chem Lett, 1996).

Assay [1] has as its target Human immunodeficiency virus type 1 protease (Human immunodeficiency virus 1, UniProt Q72874). Briefly: Compound was evaluated for the inhibition of HIV protease.
For the next assay, the system named is MT2. Briefly: Antiviral activity against […] RF infected MT-2 cells. The following applies: Homo sapiens. The class given is functional, cell-based.

By IC50 is commonly meant the midpoint of a concentration-inhibition curve. Low values mean inhibition by little substance, high ones a need for much substance. The term EC50 denotes the concentration at which the effect is half-maximal. A low value points to an effect from little substance. In turn, `CC(C)(C)NC(=O)[C@@H]1CCCN1C(=O)[C@@H](O)[C@@H]1Cc2ccc(cc2)OCCCOc2cc3ccccc3cc2C(=O)N[C@@H](CC(N)=O)C(=O)N1` displayed a concentration for half-maximal inhibition (IC50) in assay [1] of 0.019 µM. The molecule also registered an EC50 in the assay with MT2 of 0.076 µM.

In assay [1], `CC(C)(C)OC(=O)[C@@H]1CCCN1C[C@@H](O)[C@H](Cc1ccccc1)NC(=O)[C@H](CC(N)=O)NC(=O)c1ccc2ccccc2n1` had an IC50 of 0.023 µM.

Regarding `CC(C)(C)NC(=O)[C@@H]1CCCN1C(=O)[C@H](O)[C@@H]1Cc2ccc(cc2)OCCCOc2cc3ccccc3cc2C(=O)N[C@@H](CC(N)=O)C(=O)N1`, in assay [1], the IC50 came to 3.8 µM.
